# Results published in US10383873B2, “Method and kits for identifying of CDK9 inhibitors for the treatment of cancer” (Memorial Sloan-Kettering Cancer Center, priority 2014, dated 2019).
# Assays:
# human HCC cell lines [1] = test: Cell cycle analysis (BrdU/7-AAD staining) after 48 hours of treatment; format: cell-based; details: PHA-767491 treatment
# Description: (FIG. 3E) Representative flow cytometry plots showing cell cycle analysis (BrdU+7-AAD+ double staining) of cells after 48 hours of PHA-767491 treatment.
# [2] = system: non-transformed cell lines; test: Proliferation assay in non-transformed cell lines; format: cell-based; details: two non-transformed cell lines, compared with cancer cell lines
# Description: Dead cells were excluded using propidium iodide (PI) staining to score cells with sub-2N DNA content. Measurements of cell concentration were performed on a Guava Easycyte (Millipore), gating only viable cells (FSC/SSC/PI-). Proliferation rates were calculated by dividing cell concentration at 72 h and cell concentration at 0 h, divided by 72. Relative proliferation rates were calculated by normalizing to the rate of vehicle-treated cells. Population doublings were calculated by calculating log 2 (cells at end point/cells at initial point) divided by time in days.
# [3] = system: human and murine cell lines; test: Comparison of inhibitor IC50 with anti-proliferative effects of CDK9 shRNAs; format: cell-based; details: IC50 compared with competitive proliferation assays
# Excerpt: (FIG. 3A) Scatter plot illustrating the correlation between anti-proliferative effects of CDK9 shRNAs and the IC50 of PHA-767491 in six human cell lines. The correlation and p values of three additional CDK9 inhibitors and one DNA replication inhibitor (aphidicolin) are also shown in the right panel. The survival is defined as the average of the survival ratio of two shRNAs in competitive proliferation assay. (FIG. 3B) Proliferation rates of PHA-767491-treated human cells, calculated by measuring the change in viable cell number after 72 h in culture and fitting data to an exponential growth curve. Results were normalized to the proliferation rate of vehicle (H2O) treated cells, set to 1. Values are mean+/−SD of three independent replicates. (FIG. 3C) Summary of PHA-767491 IC50 values of human cell lines in FIG. 3A. […]
# Competitive proliferation assays using shRNAs in TRMPV-Neo vector (with miR-30 or miR-E backbone) were performed as described previously (Zuber J, et al. Nature (2011) 478: 524-528). […] Proliferation rates were calculated by dividing cell concentration at 72 h and cell concentration at 0 h, divided by 72. Relative proliferation rates were calculated by normalizing to the rate of vehicle-treated cells. Population doublings were calculated by calculating log 2 (cells at end point/cells at initial point) divided by time in days. […]
# [4] = system: MYC-overexpressing Alexander cells; test: Proliferation assay in Alexander cells with enforced MYC expression; format: cell-based, human; details: ectopic MYC expression versus empty vector
# SNU-475 cells = test: Proliferation assay in SNU-475 cells with enforced MYC expression; format: cell-based, human; details: MYC levels equivalent to HepG2
# Ser2 of RNA pol II = test: Immunoblot of Pol II Ser2 phosphorylation in tumors; format: in vivo, mice
# Description: Mice were maintained under specific pathogen-free conditions, and food and water were provided ad libitum. […] One million murine or human HCC cells were ortothopically transplantated into female nude recipient mice (NCR nu/nu, purchased from Charles River laboratories and Harlan Laboratories), as described previously (Saborowski et al. 2013 Proc Natl Acad Sci USA. 2013 Nov. 26; 110(48):19513-8. doi: 10.1073/pnas.1311707110.). […] For PHA-767491 treatment trials, PHA-767491 was solved in ultrapure distilled water, filtered by 0.2 M filters, and diluted to a final concentration of 5 mg/ml. Mice were orally given twice daily PHA-767491 (50 mg/kg) or a similar volume of vehicle (water). The sick animals were sacrificed and liver tumors were used for further analysis. Liver tumors were excised, formalin-fixed and paraffin-embedded, frozen, or embedded in OCT.
# Liver tissues and cell pellets were lysed in Laemmli buffer or protein lysis buffer (200 mM NaCl, 0.2% NP40, 50 mM Tris at pH 7.5, 1% Tween20, protease and phosphatases inhibitors) using a tissue homogenizer. Equal amounts of protein were separated on 12% SDS-polyacrylamide gels and transferred to PVDF membranes. […] Images were analyzed using the AlphaView software (ProteinSimple). Detection in immunoblots was performed using antibodies for CDK9 (Santa Cruz Biotechnology), MCM6 (Santa Cruz Biotechnology), PSMB2 (Santa Cruz Biotechnology), β-Actin (AC-15, Sigma), p53 (Leica Biosystems), MYC (Abcam), CCNT1 (Santa Cruz Biotechnology), phopho-Ser2 RNA Pol II (Cell Signaling), and RNA Pol II (Santa Cruz Biotechnology).
# HepG2 cells = test: Orthotopic HepG2 HCC xenograft, bioluminescent imaging and Ki67; format: in vivo, mice; details: high MYC expressing HepG2; 50 mg/kg twice a day
# Description: (§1) All mouse experiments were approved by the Memorial Sloan-Kettering Cancer Center (MSKCC) Animal Care and Use Committee (protocol no. 11-06-011). Mice were maintained under specific pathogen-free conditions, and food and water were provided ad libitum. For conditional RNAi experiments in vivo, Tet-on murine HCC MP1 cells were transduced with luciferase-hygro and TRMPV-Neo-miR-E shRNA constructs. […] For whole-body bioluminescent imaging, mice were intraperitoneally injected with 50 mg/kg D-Luciferin (Goldbio), and after 10 min, analysed using an IVIS Spectrum system (Caliper LifeSciences). Quantification was performed using Living Image software (Caliper LifeSciences) with standardized round regions of interests covering the mouse trunk and extremities. […]
# (§2) Liver tissues and cell pellets were lysed in Laemmli buffer or protein lysis buffer (200 mM NaCl, 0.2% NP40, 50 mM Tris at pH 7.5, 1% Tween20, protease and phosphatases inhibitors) using a tissue homogenizer. […] The abundance of β-actin was monitored to ensure equal loading. Images were analyzed using the AlphaView software (ProteinSimple). […]
# Alexander cells = test: Orthotopic Alexander HCC xenograft, bioluminescent imaging and Ki67; format: in vivo, mice; details: low MYC expressing Alexander; same treatment
# Description: as §1, §2
# human HCC cell lines [5] = details: previous findings; cited from earlier work
# CDK9 = CDK9 (Homo sapiens, UniProt P50750); details: versus other available inhibitors
# Chain of CDK9 (P50750 whole entry, species assumed): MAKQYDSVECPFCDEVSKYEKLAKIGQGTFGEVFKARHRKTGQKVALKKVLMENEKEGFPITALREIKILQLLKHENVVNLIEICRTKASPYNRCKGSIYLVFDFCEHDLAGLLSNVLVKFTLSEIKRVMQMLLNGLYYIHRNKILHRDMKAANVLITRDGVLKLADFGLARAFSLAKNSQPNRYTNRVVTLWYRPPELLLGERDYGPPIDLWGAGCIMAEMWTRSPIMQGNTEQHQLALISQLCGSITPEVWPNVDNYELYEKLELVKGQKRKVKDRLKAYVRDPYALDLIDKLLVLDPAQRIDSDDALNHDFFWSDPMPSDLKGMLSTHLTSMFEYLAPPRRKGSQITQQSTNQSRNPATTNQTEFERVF
# Chain of CDK9 (O60563 whole entry partner, species assumed): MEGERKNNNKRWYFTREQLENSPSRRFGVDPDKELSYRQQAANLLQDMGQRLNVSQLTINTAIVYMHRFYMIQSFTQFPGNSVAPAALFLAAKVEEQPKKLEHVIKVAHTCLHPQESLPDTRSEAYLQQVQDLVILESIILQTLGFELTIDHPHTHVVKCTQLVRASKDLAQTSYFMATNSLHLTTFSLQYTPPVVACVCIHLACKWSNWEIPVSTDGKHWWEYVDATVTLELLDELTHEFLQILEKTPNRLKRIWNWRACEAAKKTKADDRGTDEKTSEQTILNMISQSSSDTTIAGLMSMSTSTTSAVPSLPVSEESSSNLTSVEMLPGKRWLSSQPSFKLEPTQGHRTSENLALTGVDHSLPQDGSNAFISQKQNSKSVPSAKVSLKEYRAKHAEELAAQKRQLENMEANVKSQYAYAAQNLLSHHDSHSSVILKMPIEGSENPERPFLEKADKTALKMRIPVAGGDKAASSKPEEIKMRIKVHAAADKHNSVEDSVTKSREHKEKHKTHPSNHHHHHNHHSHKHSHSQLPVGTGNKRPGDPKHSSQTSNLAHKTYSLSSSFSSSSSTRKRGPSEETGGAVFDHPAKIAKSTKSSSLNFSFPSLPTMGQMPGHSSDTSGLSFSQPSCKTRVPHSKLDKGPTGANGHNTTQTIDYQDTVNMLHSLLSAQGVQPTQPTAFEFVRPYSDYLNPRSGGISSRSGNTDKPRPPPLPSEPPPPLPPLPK
SMILES,cell cycle effect (human HCC cell lines [1]),sensitivity to treatment [2],similarity of activity spectrum to CDK9 shRNAs [3],sensitivity to CDK9 inhibition [4],sensitivity compared with HepG2 cells (SNU-475 cells),"Pol II Ser2 phosphorylation in tumors (Ser2 of RNA pol II; human HCC xenografts, 50 mg/kg twice a day, 50 mg/kg)",Pol II Ser2 phosphorylation in Alexander tumors (Ser2 of RNA pol II; low MYC expressing Alexander xenografts),total RNA pol II levels in tumors (Ser2 of RNA pol II; two representative tumors),tumor growth (HepG2 cells),tumor-cell proliferation (HepG2 cells),effect on tumor-cell proliferation and tumor growth (Alexander cells),p53 dependence of proliferation inhibition (human HCC cell lines [5]),selectivity for CDK9 (CDK9)
O=C1NCCc2[nH]c(-c3ccncc3)cc21 [PHA-767491],triggered cell-cycle arrest,consistently less sensitive,most closely recapitulated shRNA-mediated CDK9 inhibition,became more sensitive,produced a similar sensitivity,decrease in the levels of phosphorylation of Ser2 of RNA pol II,detectable decrease in Pol II Ser2 phosphorylation,mild changes in total RNA pol II levels,substantial inhibition of tumor growth and some tumor regressions,decreased tumor-cell proliferation,little if any effect,inhibits cancer cell proliferation through p53-independent mechanisms,more selective for CDK9 than other available inhibitors
C[C@@]1(CO)[C@H](O)CC[C@@]2(C)[C@H]1CC[C@H]1C[C@@H]3C[C@@]12CC[C@]3(O)CO [aphidicolin],–,–,did not mimic the effects of CDK9 shRNAs,–,–,–,–,–,–,–,–,–,–
